This note sets out measurements from EP1437348A1, “6-methyl-2,4-diamino-pyrimidine derivatives, process for preparation, compositions containing them and their uses as basic neutralising agents” (L'OREAL, priority 2003, dated 2004).

The nature of data set [1]: Ionisation constants by potentiometric titration. The class given is physicochemical. The conditions noted are these: function NH^+/N (pyrimidine motif); pKa in water, NaCl 0.15M, obtained from the solvent pKa by a polynomial function; read-out: pKa expérimental. How it is done:
Les constantes d'ionisation sont déterminées expérimentalement par titrage potentiométrique suivant les conditions opératoires décrites ci-dessous et évaluées par le logiciel de prédiction ACD/pK DB, Version 5.12.
Conditions opératoires du titrage potentiométrique • Matériel utilisé : (Radiometer-Tacussel) : • titrateur TIM 900 • passeur d'échantillons SAC 90 • logiciel Tim Talk 9 • - Prise d'essai : 10^-4 mole • - Mise en solution : (solubilisation avec passeur d'échantillons) • 5 ml du mélange DMSO 70 / Ethanol 10 / Eau 20 (agitation 3 minutes avec barbotage d'azote) • 10 ml d'une solution de NaCl 0.225M dans eau 80 / DMSO 20 (agitation 3 minutes avec barbotage d'azote) • - Méthode de titrage : • Etalonnage de l'électrode entre pH4 et pH10 • Titrage direct par NaOH 1N ou après ajout d'HCl 1N • Détection d'inflexion avec ajout continu du titrant • vitesse d'addition mini : 1%/min • vitesse d'addition maxi : 1%/min • Flux d'azote à la surface de la solution pendant le titrage • - Calculs : • 2 fonctions polynomiales sont utilisées pour obtenir le pKa dans l'eau en milieu NaCl 0.15M : • pour les fonctions acides : pKaH2O = -0,0208(pKasolvant)^2 + 1,257pKasolvant - 1,6 • pour les fonctions basiques :pKaH2O = -0,0208(pKasolvant)^2 + 1,257pKasolvant - 0,75

Data set [2] has as its system Escherichia coli. The experiment in a line: Minimal inhibitory concentration (CMI), Alamar Blue broth method. The class given is cell-based. The conditions noted are these: ATCC8739, ATCC #8739, lowest concentration with growth inhibition ≥ 90%, 16 h contact at 37°C, read-out: CMI E.coli. An excerpt: (§1) La méthode de détermination de l'activité anti-microbienne des composés selon l'invention fait intervenir la mesure de la Concentration Minimale Inhibitrice (CMI) vis-à-vis de 2 bactéries gram- (E. coli et P. aeruginosa), d'une bactérie gram+ (S. aureus) et d'une levure (C. albicans). Cette méthode a été effectuée selon la méthode décrite dans les articles suivants: - Baker C.N., Banerjee S.N. and Tenover F.C. : Evaluation of Alamar colorimetric MIC Method for antimicrobial susceptibility testing of gram-negative bacteria. J. Clin. Microbiol. (1994), 32, 1261-1267; - Baker C.N. and Tenover F.C. : Evaluation of Alamar colorimetric broth microdilution susceptibility testing method for staphylococci and enterococci. J. Clin. Microbiol. (1996), 34, 2654-2659. Les souches bactériennes utilisées au départ sous forme de disques lyophilisés calibrés sont réhydratées en suivant les indications du fournisseur (Fisher Scientific S.A.)
(§2) Les souches sont ensemencées dans du milieu Trypto-caseine-soja. La mise en contact du composé à tester solubilisé dans l'eau, avec les souches en phase de croissance s'effectue en milieu liquide. Après 16 heures de contact du composé avec les bactéries (37°C), de l'Alamar Blue est ajouté comme indicateur métabolique de la viabilité de cellules variées et de bactéries. La réduction de l'indication est proportionnelle à l'activité métabolique des bactéries. A l'issue de l'incubation d'une durée de 2h (sauf pour C. albicans pour laquelle l'incubation est de 4h), l'activité métabolique des bactéries est évaluée par une lecture en absorbance ou en fluorescence. En fluorescence, les lectures sont réalisées à 544nm (Excitation) et à 590nm (Emission). Les composés les plus actifs sont sélectionnés et un effet dose (8 concentrations) est ensuite réalisé comme précédemment. La Concentration Minimale Inhibitrice (C.M.I.) a alors été déterminée comme étant la concentration la plus faible du composé testé pour laquelle était observée une inhibition de croissance de la bactérie ou de la levure ≥ 90%.

The test system of another data set is Staphylococcus aureus. Described as above. The class given is cell-based. Particulars: ATCC6538, ATCC #6538, lowest concentration with growth inhibition ≥ 90%, 16 h contact at 37°C, read-out: CMI S.aureus.
From the text: as §1, §2

Data set [3] concerns Candida albicans. The description is as above. Type of data set: cell-based. The conditions noted are these: ATCC10231, ATCC #10231, lowest concentration with growth inhibition ≥ 90%, 16 h contact at 37°C.
From the text: as §1, §2

Data set [4] concerns Pseudomonas aeruginosa. The description is as above. The class given is cell-based. The conditions noted are these: ATCC9027, ATCC #9027, lowest concentration with growth inhibition ≥ 90%, 16 h contact at 37°C, read-out: CMI P.aeruginosa.
From the text: as §1, §2

Data set [5] has as its system Escherichia coli. The experiment in a line: Challenge test (artificial contamination) in cosmetic supports. The class given is cell-based. Particulars: inoculum about 10^6 germes/gramme, sensitivity threshold 200 UFC. From the text:
(§3) La mesure de la Concentration Minimale Inhibitrice (C.M.I.) développée ci-dessus ne peut être utilisée avec fiabilité pour les moisissures; or les moisissures peuvent également poser de graves problèmes dans la conservation des produits cosmétiques. En sachant que l'activité d'un composé diminue lorsqu'il est introduit dans une formule et que la méthode de la CMI se fait après dilution du composé dans l'eau, l'efficacité anti-microbienne des composés de formule (I) a été évaluée par la méthode du Challenge Test ou contamination artificielle après avoir introduit lesdits composés dans des supports cosmétiques (lotion, émulsions huile-dans-eau et eau-dans-huile). La méthode du challenge-test consiste en une contamination artificielle de l'échantillon par des souches microbiennes de collection (bactéries, levures et moisissures) et en une évaluation du nombre de micro-organismes revivifiables sept jours après l'inoculation. Afin de mettre en évidence l'effet d'un composé de formule (I), l'activité anti-microbienne d'une formule cosmétique contenant 0.25% de 4 methyl-pipéridine-1-yl-pyrimidine-2-ylamine a été comparée avec la même formule seule, après inoculation d'environ 10^6 germes/gramme de produit cosmétique.

The test system of the next data set is Enterococcus faecalis. Described as above. Type of data set: cell-based. Particulars: inoculum about 10^6 germes/gramme, sensitivity threshold 200 UFC.
From the text: as §3

The subject of the next data set is Aspergillus niger. Described as above. Particulars: inoculum about 10^6 germes/gramme, sensitivity threshold 200 UFC. The class given is cell-based.
From the text: as §3

In data set [6] the test system is Candida albicans. Described as above. The class given is cell-based. Particulars: inoculum about 10^6 germes/gramme, sensitivity threshold 200 UFC.
From the text: as §3

The subject of data set [7] is Pseudomonas aeruginosa. The description is as above. Type of data set: cell-based. Particulars: inoculum about 10^6 germes/gramme, sensitivity threshold 200 UFC.
From the text: as §3

Setting [8] is: Emulsion démaquillante huile dans eau + 0.25% compound.
[9] abbreviates: Emulsion eau dans huile + 0.250% compound.

≈ marks a conversion by molar mass, not a printed value.

The pKa is the pH at which an ionisable group is half protonated. Regarding `Cc1cc(N2CCCCC2)nc(N)n1` [Composé M, 4-methyl-6-pipéridine-1-yl-pyrimidine-2-ylamine], the pKa in data set [1] was determined as 8.35. Moreover, the MIC with Escherichia coli [2] came out at 5000 µg/mL (≈ 26 mM); in the data set with Staphylococcus aureus it was 5000 µg/mL (≈ 26 mM); in the data set on Candida albicans [3], 625 µg/mL (≈ 3.25 mM); with Pseudomonas aeruginosa [4], 5000 µg/mL (≈ 26 mM). Further, the “Nombre d'UFC / gramme de produit après 7 jours de contact germes / produit” value is <200^2 UFC / gramme de produit in the data set on Escherichia coli [5] (setting [8]); <200^2 UFC / gramme de produit with Escherichia coli [5] (setting [9]); <200^2 UFC / gramme de produit in the data set with Escherichia coli [5] (Lotion + 0.25% compound); less than 200 UFC / gramme de produit with Enterococcus faecalis (setting [8]); 400 UFC / gramme de produit in the data set with Enterococcus faecalis (Lotion + 0.25% compound); 400 UFC / gramme de produit with Aspergillus niger (setting [9]). Besides, the “Nombre d'UFC / gramme de produit après 7 jours de contact germes / produit” value is reported as 400 UFC / gramme de produit in the data set on Aspergillus niger (Lotion + 0.25% compound); less than 200 UFC / gramme de produit with Candida albicans [6] (setting [8]); less than 200 UFC / gramme de produit in the data set with Candida albicans [6] (setting [9]); less than 200 UFC / gramme de produit with Candida albicans [6] (Lotion + 0.25% compound); less than 200 UFC / gramme de produit in the data set on Pseudomonas aeruginosa [7] (setting [8]); less than 200 UFC / gramme de produit in the data set on Pseudomonas aeruginosa [7] (setting [9]). In addition, the “Nombre d'UFC / gramme de produit après 7 jours de contact germes / produit” value in the data set on Pseudomonas aeruginosa [7] (Lotion + 0.25% compound) is less than 200 UFC / gramme de produit.
